Measurements taken from patent US6468979B1, “Erythromycin derivatives with antibiotic activity” (Zambon Group S.p.A., priority 1998, dated 2002).
Values after ≈ are worked out from the molar mass of the structure shown.

How the values were obtained:
[1] = system: Streptococcus pyogenes C203; experiment: In vivo therapeutic efficacy in experimental pulmonary infection in mice; conditions: CD1 mice, death observed for 7 days, probit analysis; for PD50 1 hour after infection: single oral dose 1 hour after intranasal infection; for PD50 24 hours before infection: single oral dose 24 hours before intranasal infection
Method: The therapeutic efficacy, expressed as the 50% protective dose (PD50), of the compounds of formula (I) was evaluated in the experimental pulmonary infection induced in mice by Streptococcus pyogenes C203.
Charles River albino mice (strain CD1) weighing 23-25 g were used, kept in groups of 6 to a cage and fed normally with a standard diet and water ad libitum.
A suspension of Streptococcus pyogenes C203 (equal to about 10^8 CFU) in tryptone broth (0.05 ml) was administered intranasally to each mouse, anaesthetized with a mixture of ethyl ether and chloroform.
The compounds of formula I and the clarithromycin reference compounds were administered orally in a single dose, as a 0.5% suspension Methocel® 1 hour after the infection and 24 hours before the infection.
Observation of the death of the mice was continued for 7 days after the infection.
The PD50, expressed as μmol/kg, was calculated by means of probit analysis.

S. haemolyticus 161 = experiment: In vitro antibacterial activity (MIC), broth dilution micromethod; type: cell-based, Staphylococcus haemolyticus; conditions: erythromycin-resistant strain, MHB, 37° C., 18 hours
Method: (§1) The minimum inhibitory concentrations (MIC), with respect to Gram-positive bacteria (erythromycin-sensitive and -resistant strains) and Gram-negative bacteria, were determined by means of the broth-scaler dilution micromethod in twin series [National Committee for Clinical Laboratory Standards, 1990; Methods for dilution antimicrobial susceptibility tests for bacteria that grow aerobically; Approved standards M7-A2-NCCLS, Villanova, Pa.], using Mueller Hinton Broth (MHB) as culture medium.
(§2) Azithromycin [The Merck Index, XIIth Edition, No. 946) was used as reference macrolide.
(§3) The MIC values, expressed in μg/ml, were determined after incubating the microplates at 37° C. for 18 hours, by evaluating the lowest concentration of antibiotic capable of inhibiting bacterial growth.

S. specie 916 = experiment: as above; type: cell-based, Staphylococcus spp.; conditions: erythromycin-resistant (inducible) strain, MHB, 37° C., 18 hours
Method: as §1, §2, §3

S. epidermis 60 = experiment: as above; type: cell-based, Staphylococcus spp.; conditions: erythromycin-resistant (inducible) strain, MHB, 37° C., 18 hours
Method: as §1, §2, §3

S. coag. Neg. 845 = experiment: as above; type: cell-based, Staphylococcus spp.; conditions: erythromycin-resistant strain, MHB, 37° C., 18 hours
Method: as §1, §2, §3

S. aureus 929 = experiment: as above; type: cell-based, Staphylococcus aureus; conditions: erythromycin-resistant strain, MHB, 37° C., 18 hours
Method: as §1, §2, §3

S. aureus 77 = experiment: as above; type: cell-based, Staphylococcus aureus; conditions: erythromycin-resistant strain, MHB, 37° C., 18 hours
Method: as §1, §2, §3

S. pneumoniae 1051 = experiment: as above; type: cell-based, Streptococcus pneumoniae; conditions: erythromycin-resistant strain, MHB with 5% horse serum, 37° C., 18 hours
Method: as §1
(§4) In the case of Streptococcus pneumoniae, the medium was supplemented with 5% horse serum.
as §2, §3

S. pneumoniae 1047 = experiment: as above; type: cell-based, Streptococcus pneumoniae; conditions: erythromycin-resistant strain, MHB with 5% horse serum, 37° C., 18 hours
Method: as §1, §4, §2, §3

S. pneumoniae 1035 = experiment: as above; type: cell-based, Streptococcus pneumoniae; conditions: erythromycin-resistant strain, MHB with 5% horse serum, 37° C., 18 hours
Method: as §1, §4, §2, §3

| Compound | PD50 1 hour after infection [1] [µmol/kg] | PD50 24 hours before infection [1] [µmol/kg] | MIC S. haemolyticus 161 (S. haemolyticus 161) [µg/mL] | MIC S. specie 916* (S. specie 916) [µg/mL] | MIC S. epidermis 60* (S. epidermis 60) [µg/mL] | MIC S. coag. Neg. 845 (S. coag. Neg. 845) [µg/mL] | MIC S. aureus 929 (S. aureus 929) [µg/mL] | MIC S. aureus 77 (S. aureus 77) [µg/mL] | MIC S. pneumoniae 1051 (S. pneumoniae 1051) [µg/mL] | MIC S. pneumoniae 1047 (S. pneumoniae 1047) [µg/mL] | MIC S. pneumoniae 1035 (S. pneumoniae 1035) [µg/mL] | MIC (S. pneumoniae 1051; Streptococcus pneumoniae, 1051) [µg/mL] | MIC (S. pneumoniae 1047; Streptococcus pneumoniae, 1047) [µg/mL] | MIC (S. pneumoniae 1035; Streptococcus pneumoniae, 1035) [µg/mL] | MIC (S. haemolyticus 161; Staphylococcus haemolyticus, 161) [µg/mL] | MIC (S. specie 916; Staphylococcus, 916) [µg/mL] | MIC (S. epidermis 60; Staphylococcus, 60) [µg/mL] | MIC (S. coag. Neg. 845; Staphylococcus) [µg/mL] | MIC (S. aureus 929; Staphylococcus aureus, 929) [µg/mL] | MIC (S. aureus 77; Staphylococcus aureus, 77) [µg/mL] |
| --- | --- | --- | --- | --- | --- | --- | --- | --- | --- | --- | --- | --- | --- | --- | --- | --- | --- | --- | --- | --- |
| CC[C@H]1OC(=O)[C@H](C)[C@@H](O[C@H]2C[C@@](C)(OC)[C@@H](O)[C@H](C)O2)[C@H](C)[C@@H](O[C@@H]2O[C@H](C)C[C@H](N(C)C)[C@H]2O)[C@](C)(O)C[C@@H](C)/C(=N\OCCNCCCCCCNCc2nc(-c3nccs3)cs2)[C@H](C)[C@@H](O)[C@]1(C)O [Compound 1, erythromycin A (E)-9-[O-[2-[6-[([2,4′]bithiazole-2′-ylmethyl)amino]hexylamino]ethyl]oxime]] | 22.9 | 15.5 | >64 | 2 (≈ 1.87 µM) | 2 (≈ 1.87 µM) | >64 | >64 | >64 |  |  |  |  |  |  |  |  |  |  |  |  |
| CC[C@H]1OC(=O)[C@H](C)[C@@H](O[C@H]2C[C@@](C)(OC)[C@@H](O)[C@H](C)O2)[C@H](C)[C@@H](O[C@@H]2O[C@H](C)C[C@H](N(C)C)[C@H]2O)[C@](C)(OC)C[C@@H](C)C(=O)[C@H](C)[C@@H](O)[C@]1(C)O [Clarithromycin, reference compound] | 7.38 | >85.6 |  |  |  |  |  |  |  |  |  |  |  |  |  |  |  |  |  |  |
| CC[C@H]1OC(=O)[C@H](C)[C@@H](O[C@H]2C[C@@](C)(OC)[C@@H](O)[C@H](C)O2)[C@H](C)[C@@H](O[C@@H]2O[C@H](C)C[C@H](N(C)C)[C@H]2O)[C@](C)(O)C[C@@H](C)/C(=N\OCCNCCCCCCNCc2csc(-n3cccn3)n2)[C@H](C)[C@@H](O)[C@]1(C)O [Compound 10, Erythromycin A (E)-9-[O-[2-[6-[(2-pyrazol-1-ylthiazol-4-ylmethyl)amino]hexylamino]ethyl]oxime]] |  |  | 64 (≈ 60.7 µM) | 4 (≈ 3.79 µM) | 1 (≈ 0.948 µM) | 32 (≈ 30.3 µM) | 32 (≈ 30.3 µM) | >64 | 0.25 (≈ 0.237 µM) | 0.5 (≈ 0.474 µM) | 1 (≈ 0.948 µM) |  |  |  |  |  |  |  |  |  |
| CC[C@H]1OC(=O)[C@H](C)[C@@H](O[C@H]2C[C@@](C)(OC)[C@@H](O)[C@H](C)O2)[C@H](C)[C@@H](O[C@@H]2O[C@H](C)C[C@H](N(C)C)[C@H]2O)[C@](C)(O)C[C@@H](C)/C(=N\OCCNCCCCCCNCc2csc(-n3ccnc3)n2)[C@H](C)[C@@H](O)[C@]1(C)O [Compound 5, Erythromycin A (E)-9-[O-[2-[6-[(2-imidazol-1-ylthiazol-4-ylmethyl)amino]hexylamino]ethyl]oxime]] |  |  | >64 | 4 (≈ 3.79 µM) | 1 (≈ 0.948 µM) | >64 | >64 | >64 | 2 (≈ 1.9 µM) | 4 (≈ 3.79 µM) | 4 (≈ 3.79 µM) |  |  |  |  |  |  |  |  |  |
| CC[C@H]1OC(=O)[C@H](C)[C@@H](O[C@H]2C[C@@](C)(OC)[C@@H](O)[C@H](C)O2)[C@H](C)[C@@H](O[C@@H]2O[C@H](C)C[C@H](N(C)C)[C@H]2O)[C@](C)(O)C[C@@H](C)/C(=N\OCCNCCCCCCNCc2csc(-n3cncn3)n2)[C@H](C)[C@@H](O)[C@]1(C)O [Compound 8, Erythromycin A (E)-9-[O-[2-[6-[(2-[1,2,4]triazol-1-ylthiazol-4-ylmethyl)amino]hexylamino]ethyl]oxime]] |  |  | >64 | 8 (≈ 7.58 µM) | 2 (≈ 1.9 µM) | >64 | >64 | >64 | 1 (≈ 0.948 µM) | 2 (≈ 1.9 µM) | 4 (≈ 3.79 µM) |  |  |  |  |  |  |  |  |  |
| Erythromycin A (E)-9-[O-[2-[6-[(2-[1,2,3]thiadiazol-5-ylthiazol-4-ylmethyl]amino]hexylamino]ethyl]oxime] [Compound 3] | 4.5 | 25.4 | 64 | 0.5 | 1 | 64 | 64 | >64 |  |  |  |  |  |  |  |  |  |  |  |  |
| CC[C@H]1OC(=O)[C@H](C)[C@@H](O[C@H]2C[C@@](C)(OC)[C@@H](O)[C@H](C)O2)[C@H](C)[C@@H](O[C@@H]2O[C@H](C)C[C@H](N(C)C)[C@H]2O)[C@](C)(O)C[C@@H](C)/C(=N\OCCNCCCCCCNCc2csc(-c3cccs3)n2)[C@H](C)[C@@H](O)[C@]1(C)O [Compound 4, Erythromycin A (E)-9-[O-[2-[6-[(2-thiophen-2-ylthiazol-4-ylmethyl)amino]hexylamino]ethyl]oxime]] | 11.4 | 14.3 | 16 (≈ 14.9 µM) | 8 (≈ 7.47 µM) | 0.5 (≈ 0.467 µM) | 16 (≈ 14.9 µM) | 16 (≈ 14.9 µM) | 64 (≈ 59.8 µM) |  |  |  |  |  |  |  |  |  |  |  |  |
| CC[C@H]1OC(=O)[C@H](C)[C@@H](O[C@H]2C[C@@](C)(OC)[C@@H](O)[C@H](C)O2)[C@H](C)[C@@H](O[C@@H]2O[C@H](C)C[C@H](N(C)C)[C@H]2O)[C@](C)(O)C[C@@H](C)/C(=N\OCCN(C)CCCCCCNCc2nc(-c3nccs3)cs2)[C@H](C)[C@@H](O)[C@]1(C)O [Compound 2] |  |  | >64 | 4 (≈ 3.68 µM) | 2 (≈ 1.84 µM) | >64 | >64 | >64 |  |  |  |  |  |  |  |  |  |  |  |  |
| CC[C@H]1OC(=O)[C@H](C)[C@@H](O[C@H]2C[C@@](C)(OC)[C@@H](O)[C@H](C)O2)[C@H](C)[C@@H](O[C@@H]2O[C@H](C)C[C@H](N(C)C)[C@H]2O)[C@](C)(O)C[C@@H](C)CN(C)[C@H](C)[C@@H](O)[C@]1(C)O [Azithromycin, reference compound] |  |  |  |  |  |  |  |  |  |  |  | 16 (≈ 21.4 µM) | 2 (≈ 2.67 µM) | 4 (≈ 5.34 µM) | > 64 | > 64 | > 64 | > 64 | > 64 | > 64 |
